Here are results for 4 substances from patent publication US20090105155A1, “TRUNCATED LHRH FORMULATIONS” (priority 2004, published 2009).

Where no end group is shown, it is not given here.

Format in all cases: in vivo
In experiment [1] the test system is LHRH. The experiment is described as follows: Anti-LHRH antibody titres induced by different priming and boosting regimes (Example 2). The following applies: Beagles/foxhound dogs, 5 nmoles total peptides (pool p25, p35, p62) with Iscomatrix; for titres of antibodies following the second dose of vaccine: doses week 0, 4, 14, LHRH (2-10) compared with LHRH (6-10). From the text: (§1) Beagles/foxhound dogs were divided into three groups. One group (12 dogs) received three doses of 5 nmoles of total peptides consisting of a pool of peptides p25, p35 and p62 coupled to LHRH (6-10).
(§2) A second group (6 dogs) received three doses of 5 nmoles of total peptides consisting of a pool of peptides p25, p35 and p62 coupled to LHRH (2-10).
(§3) A third group (6 dogs) received three doses of 5 nmoles of total peptides consisting of a pool of peptides p25, p35 and p62 coupled to LHRH (2-10) as the first dose. For the second and third dose the vaccine was the same pool of peptides but coupled to LHRH (6-10).
(§4) The dogs received the three doses of vaccine in week 0, 4 and 14 respectively.
(§5) 1 to 1.5 mg of each of the peptides were weighed out and dissolved in 100 ul of 4 M urea separately. The amounts of the solutions corresponding to 1.7 nmoles of each peptide were mixed and diluted with isotonic saline to the designated dose volume for injection (1 ml per dose). For each dose 150 ug of Iscomatrix•® (CSL, Melbourne, Australia) was also added as adjuvant. The vaccine was given to dogs in the scruff of the neck.

Experiment [2] deals with LHRH. Description: Testosterone and progesterone levels following vaccination with LHRH (6-10) or LHRH (4-10) (Example 3). The following applies: Beagles/foxhound dogs, 35 nmoles total peptides, 7-peptide pool with Iscomatrix; for hormone breakthrough: testosterone and progesterone. As to the method:
(§6) Beagles/foxhound dogs were divided into two groups. One group (15 dogs) received three doses of 35 nmoles of total peptides consisting of a pool of peptides p4, p10, p24, p25, p27, p35 and p62 coupled to LHRH (6-10).
(§7) A second group (15 dogs) received three doses of 35 nmoles of total peptides consisting of a pool of peptides p4, p10, p24, p25, p27, p35 and p62 coupled to LHRH (4-10).
as §4
(§8) 1 to 1.5 mg of each of the peptides were weighed out and dissolved in 100 ul of 4 M urea separately. The amounts of the solutions corresponding to 5 nmoles of each peptide were mixed and diluted with isotonic saline to the designated dose volume for injection (1 ml per dose). For each dose 150 ug of Iscomatrix•® (CSL, Melbourne, Australia) was also added as adjuvant. The vaccine was given to dogs in the scruff of the neck.

In experiment [3] the test system is LHRH. Description: Anti-LHRH antibody titres induced by LHRH (6-10) and LHRH (4-10) (Example 3). To be noted: Beagles/foxhound dogs; 35 nmoles total peptides (pool p4, p10, p24, p25, p27, p35, p62) with Iscomatrix; week 0, 4, 14; compared with LHRH (6-10). How it is done:
as §6, §7, §4, §8

Experiment [4] has as its system LHRH. Description: Testosterone and progesterone levels in vaccinated dogs (Example 2). The following applies: Beagles/foxhound dogs; two doses; proportion of animals, compared with the other regimes.
From the text: as §1, §2, §3, §4, §5

For “LHRH (2-10)-LHRH (6-10): Regime: p25, p35, p62 pool coupled to LHRH (2-10) as first dose, same pool coupled to LHRH (6-10) for second and third dose (HWSYGLRPG; ends and bridges not checked; also: coupled to T helper peptide pool; UniProt P01148 25-33, looked up, fragment)”, the “titre in the primary antibody response” value in experiment [1] (comparison of the three regimes) is listed as “lowest titres”.
Turning to “LHRH (2-10): Vaccine: pool of peptides p25, p35 and p62 coupled to LHRH (2-10), with Iscomatrix adjuvant (HWSYGLRPG; ends and bridges not checked; also: coupled to T helper peptide pool; UniProt P01148 25-33, looked up, fragment)”, the “titres of antibodies following the second dose of vaccine” value in experiment [1] is “little apparent difference”.
Consider “LHRH (4-10): Vaccine: pool of peptides p4, p10, p24, p25, p27, p35 and p62 coupled to LHRH (4-10) (SYGLRPG), with Iscomatrix adjuvant”, for which, in experiment [2] (compared with LHRH (6-10)), the “effect on progesterone levels” value was “more striking effect” and the “effect on testosterone levels” value is “more striking effect”. Besides, the hormone breakthrough entry in experiment [2] was “no animals show hormone breakthrough”. Besides, the titres of antibodies entry in experiment [3] was “Higher titres”.
As to “LHRH (6-10): Vaccine: T helper epitope peptides coupled to LHRH (6-10), Iscomatrix; pool p25, p35, p62 (Example 2) or seven-peptide pool (Example 3) (GLRPG; ends and bridges not checked; also: coupled to T helper peptide pool; UniProt P01148 29-33, looked up, fragment)”, the hormone breakthrough result in experiment [2] was “hormone breakthrough”. For the same substance, in experiment [1], the “titres of antibodies following the second dose of vaccine” value is reported as “little apparent difference”. In addition, in experiment [4], the levels of progesterone result is given as “lower levels” and the levels of testosterone entry was “lower levels”.
